The structures appear in SMILES notation. Entries after “also recorded” stand apart in the source; their conditions may differ. Where two headings read alike, the source gives them in different places.

In assay [1] the test system is APP-Tg mouse. Briefly: Evaluation of the cognitive function by novel object recognition test (NORT) in APP-Tg mice (Test 3). In kind it is in vivo. On the set-up: key to Discrimination index: (novel − known search time)/(novel + known search time). Conditions: for improvement of cognitive function (NORT) / improvement of cognitive function (NORT), summary of the above results: APP-Tg mice; for improvement of cognitive function (NORT), summary of the above results: alone, with Elacridar or with ABT depending on the compound; for Discrimination index: APP-Tg mouse. As for the experimental part: Test 3: Evaluation of the Cognitive Function by Novel Object Recognition Test (Hereinafter, Also Referred to as “NORT”)
The present test is for evaluating the improvement of cognitive function with the test compounds. When an APP-Tg mouse which is an AD (Alzheimer's disease) model mouse is evaluated by NORT, the memory for a familiar object decreases depending on the time interval between the first trial run (training) and the second trial run (test). For example, if the first trial run is done and 3 hours later the second one is done, there is no difference in the searching times between novel object and known object for the APP-Tg mouse, compared with a healthy mouse. Thus, the APP-Tg mouse suffers from significant amnesia.
The APP-Tg mouse used herein was prepared by constructing an expression cassette linked to human APP751 isoform to which Swedish (K670N/M671L) and Indiana (V717F) mutation were introduced at downstream of mouse Thy-1 promoter, then injecting the expression cassette into a mouse fertilized egg, and transplanting it to a host mouse. The prepared mouse presents with intracerebral AB accumulation and cognitive dysfunction from early on, and thus the mouse can be used for the evaluation of cognitive function. APP-Tg mouse has been also reported in Non-patent literature 6.
To the prepared APP-Tg mouse, the test compound was administered, and then the first trial run was done for the mouse 30 minutes after the intraperitoneal administration or after 10 days of mixed diet administration. The second trial run was done 3 hours after the first trial run, and the searching times between novel object and known object in the second trial were evaluated. The discrimination index was calculated from the searching time for novel object and known object in the second trial run, and the improvement of cognitive function of the test compound was confirmed by comparing the discrimination index with the test compound-unadministered group as an index of the cognitive function. The discrimination index was calculated by the following formula.
Discrimination index={(Searching time for novel object)−(Searching time for known object)}/{(Searching time for novel object)+(Searching time for known object)}
The present test can be also done with a combination with Elacridar (Tokyo Chemical Industry Co., Ltd.). Elacridar can inhibit P-gp and BCRP which are excretion transporters expressed in the blood-brain barrier and thereby Elacridar has the effect of improving the transferability of the test compound to the brain. Eracridal was orally administered to APP-Tg mice at 100 mg/kg 2 hours before the first trial run, and then the test compound was intraperitoneally administered to the mice 30 minutes before the first trial run according to the above method. And, the improvement of cognitive function was evaluated. The significant difference from the vehicle-administered group was determined using the parametric Dunnett multiple comparison test.
And, the present test can be also done with a combination with ABT (1-aminobenzotriazole) (Tokyo Chemical Industry Co., Ltd.). ABT has the effect of improving the blood concentration of the test compound by inhibiting CYP and suppressing metabolism. The test compound and ABT (1 mg/g-food) were administered with food to APP-Tg mice for 10 days, and then the improvement of cognitive function was evaluated according to the above method. The significant difference from the vehicle-administered group was determined using the parametric Dunnett multiple comparison test.

The target of assay [2] is T1, human Nav1.1 (Homo sapiens, UniProt P35498).
T1 construct: host or cells: HEK293
Briefly: Amplification of Nav1.1-derived voltage-gated sodium current (Nav1.1 current), automated patch clamp (Test 1). Format: cell-based. Put shortly:
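Compound-induced change in ramp-evoked sodium current peak and AUC was expressed as 100×post/pre ratio minus 100. Recordings used automated patch clamp in voltage-clamp mode on a stable human Nav1.1 HEK293 line, including only cells above 500 pA. Compounds were delivered in extracellular fluid containing 1% DMSO.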
Background: In patch-clamp work, channel activity is measured electrically.

The test system of assay [3] is phosphorylated tau oligomer. Briefly: Evaluation of phosphorylated tau oligomers in brain of APP-Tg mice, Western blotting (Test 4). In kind it is in vivo, mouse. Conditions: for Reducing effect of phosphorylated tau oligomer: 7-10 days, with ABT 1 mg/g-food; for reducing effect of tau oligomer: with food for 7-10 days, ABT 1 mg/g-food depending on the compound, brain, anti-oligomerized tau antibody TOMA-1. As to the method:
Test 4: Evaluation of Phosphorylated Tau Oligomers Using APP-Tg Mice
This test is a test to quantify the oligomer of phosphorylated tau in the brain to evaluate the action of a compound. […] The APP-Tg mice used herein were prepared by the method described in Test 3.
The test compound administered with food to APP-Tg mice for 7-10 days. At this time, in order to increase the blood concentration of the test compound, ABT was used in combination with a mixed diet of 1 mg/g-food depending on the compound. After the administration, the brain was collected, and the protein is extracted from the collected brain using TBS (Tris Buffered Saline) or sarcosyl, and then SDS-PAGE (sodium dodecyl sulfate-polyacrylamide gel electrophoresis) of the soluble or insoluble fraction was performed. After that, Western blotting was performed using an anti-oligomerized tau antibody (Anti-Tau, oligomeric, clone TOMA-1), and the effect of the test compound was evaluated by quantifying the band amount of the phosphorylated tau oligomer.
The reducing effect of phosphorylated tau oligomer was calculated by the following formula, and from the calculated values, the results were defined as follows: 0-25%: +, 25-50%: ++, 50-75%: +++, and 75-100%: ++++. The significant difference from the vehicle-administered group was determined using the Student t-test. For the band amount, the value corrected by the β-actin band amount was used.
Reducing effect of phosphorylated tau oligomer={(band amount of oligomerized tau in vehicle-administered group−band amount of oligomerized tau in test compound-administered group)/band amount of oligomerized tau in vehicle-administered group}×100
For orientation: Immunoblotting shows a protein as a band on a membrane.

The mark [4] stands for this setting: dose 60 (mg/g i.p.), with Elacridar 100 mg/kg orally 2 hours before first trial run.
Setting [5] is: with Elacridar 100 mg/kg orally 2 hours before first trial run.
Setting [6] is: HEK293, Concentration for evaluation 1 μM, HEK293 cell line stably expressing human Nav1.1, read-out: Nav1.1 current amplification rate (%).
Where [7] appears, read: test compound and ABT (1 mg/g-food) administered with food for 10 days.
Where [8] appears, read: dose 0.2 mg/g-food for 10 days, with ABT 1 mg/g-food.
[9] abbreviates: dose 2 mg/g-food for 10 days, with ABT 1 mg/g-food.
The mark [10] stands for this setting: Concentration for evaluation 3 μM, HEK293 cell line stably expressing human Nav1.1.
Where [11] appears, read: Concentration for evaluation 10 μM, HEK293 cell line stably expressing human Nav1.1.

With `O=C(Cn1ncc2ncc(N3CCC4(CC4)C(F)(F)C3)nc21)Nc1ccn2ncnc2c1` [Example 609, 2-[6-(4,4-difluoro-6-azaspiro[2.5]octan-6-yl)-1H-pyrazolo[3,4-b]pyrazin-1-yl]-N-([1,2,4]triazolo[1,5-a]pyridin-7-yl)acetamide], the “improvement of cognitive function (NORT)” value in assay [1] (Elacridar orally 100 mg/kg 2 hours before, test compound intraperitoneally 30 minutes before the first trial run, 100 mg/kg) is reported as “some improvement of cognitive function; also recorded: strong improvement of cognitive function”. For the same molecule, the “improvement of cognitive function (NORT), summary of the above results” value (“improvement … of the above results” for short) in assay [1] is “some improvement of cognitive function”. Further, the Discrimination index in assay [1] (setting [4]) and in assay [1] (setting [5]) was 0.29 in each case. Besides, the activation at 1 µM in assay [2] (setting [6]) worked out at 84%.
Take `CN(c1cnc2cnn(CC(=O)Nc3ccn4ncnc4c3)c2n1)C1CCCC1` [Example 593, 2-{6-[cyclopentyl(methyl)amino]-1H-pyrazolo[3,4-b]pyrazin-1-yl}-N-([1,2,4]triazolo[1,5-a]pyridin-7-yl)acetamide]: in assay [1] (Elacridar orally 100 mg/kg 2 hours before, test compound intraperitoneally 30 minutes before the first trial run), the “improvement of cognitive function (NORT)” value is “some improvement of cognitive function”. For the same molecule, in assay [1], the “improvement … of the above results” value is “some improvement of cognitive function”. For the same molecule, the Discrimination index in assay [1] (setting [4]) is listed as 0.20; in assay [1] (setting [5]) it was 0.11. Moreover, the activation at 1 µM in assay [2] (setting [6]) was determined as 78%.
Turning to `Cc1ncccc1N1CCN(C(=O)Cn2nc(C3=CCC(C)CC3)ccc2=O)CC1` (stereo not shown) [Example 410, 6-(4-methylcyclohex-1-en-1-yl)-2-{2-[4-(2-methylpyridin-3-yl)piperazin-1-yl]-2-oxoethyl}pyridazin-3 (2H)-one], the “Reducing effect of phosphorylated tau oligomer” value was “+++ (50-75%: +++)” in assay [3] (dose 0.6 mg/g-food) and “+ (0-25%: +)” in assay [3] (dose 2 mg/g-food). Moreover, in assay [3], the “reducing effect of tau oligomer” value was “some reducing effect of tau oligomer; also recorded: strong reducing effect of tau oligomer”. For the same molecule, the activation at 3 µM in assay [2] (HEK293, Concentration for evaluation 3 μM, HEK293 cell line stably expressing human Nav1.1, read-out: Nav1.1 current amplification rate (%)) was determined as 66%.
With `CN(CC1CCC1)c1ncc2cnn(CC(=O)Nc3ccc4ncnn4c3)c2n1` [Example 819, 2-{6-[(cyclobutylmethyl)(methyl)amino]-1H-pyrazolo[3,4-d]pyrimidin-1-yl}-N-([1,2,4]triazolo[1,5-a]pyridin-6-yl)acetamide], the “improvement … of the above results” value in assay [1] is given as “some improvement of cognitive function”. Further, the “improvement of cognitive function (NORT)” value in assay [1] (setting [7]) is on record as “some improvement of cognitive function; also recorded: strong improvement of cognitive function”. The Discrimination index is on record as 0.47 in assay [1] (setting [8]) and 0.52 in assay [1] (setting [9]). Further, the “Reducing effect of phosphorylated tau oligomer” value is “++ (25-50%: ++)” in assay [3] (dose 0.2 mg/g-food) and “+ (0-25%: +)” in assay [3] (dose 2 mg/g-food). Also, in assay [3], the “reducing effect of tau oligomer” value is reported as “some reducing effect of tau oligomer”. In assay [2] (HEK293, concentration for evaluation 1 μM, HEK293 stably expressing human Nav1.1, read-out: Nav1.1 current amplification rate (%)), the activation at 1 µM came to 88%.
Turning to `CN(c1cnc2cnn(CC(=O)Nc3ccn4ncnc4c3)c2n1)C1CC2(CC2)C1` [Example 630, 2-{6-[methyl(spiro[2.3]hexan-5-yl)amino]-1H-pyrazolo[3,4-b]pyrazin-1-yl}-N-([1,2,4]triazolo[1,5-a]pyridin-7-yl)acetamide], the “improvement … of the above results” value in assay [1] was “some improvement of cognitive function”. Besides, the “improvement of cognitive function (NORT)” value in assay [1] (setting [7]) is given as “some improvement of cognitive function”. In addition, the Discrimination index is reported as 0.04 in assay [1] (setting [8]) and 0.45 in assay [1] (setting [9]). Moreover, the “Reducing effect of phosphorylated tau oligomer” value in assay [3] (dose 0.2 mg/g-food) and in assay [3] (dose 2 mg/g-food) was “++ (25-50%: ++)” each time. In assay [3], the “reducing effect of tau oligomer” value was “some reducing effect of tau oligomer”. In addition, the activation at 1 µM in assay [2] (setting [6]) stood at 120%.
Consider `Cc1cc(NC(=O)Cn2nc(C3=CCC(C)CC3)ccc2=O)cc(C)n1` (stereo not shown) [Example 364, N-(2,6-dimethylpyridin-4-yl)-2-[3-(4-methylcyclohex-1-en-1-yl)-6-oxopyridazin-1(6H)-yl]acetamide], for which the “Reducing effect of phosphorylated tau oligomer” value in assay [3] (dose 0.6 mg/g-food) and in assay [3] (dose 2 mg/g-food) was “+ (0-25%: +)” in each case. The activation at 1 µM in assay [2] (setting [6]) was 25%.
As for `CN(c1ccc(=O)n(CC(=O)N2CCc3c(N4CCOCC4)cccc32)n1)C1CCCC1` [Example 565, 6-[cyclopentyl(methyl)amino]-2-{2-[4-(morpholin-4-yl)-2,3-dihydro-1H-indol-1-yl]-2-oxoethyl}pyridazin-3(2H)-one], the “Reducing effect of phosphorylated tau oligomer” value is listed as “+++ (50-75%: +++)” in assay [3] (dose 0.5 mg/g-food) and “++ (25-50%: ++)” in assay [3] (dose 4.5 mg/g-food). In addition, the “reducing effect of tau oligomer” value in assay [3] was “some reducing effect of tau oligomer; also recorded: strong reducing effect of tau oligomer”.
Regarding `CN(c1cnc2cnn(CC(=O)N3CCN(c4cccnc4)CC3)c2n1)C1CCCC1` [Example 673], in assay [2] (setting [10]), the “Nav1.1 current amplification rate (%)” value was determined as 20%.
With `CC1CC=C(c2ccc(=O)n(CC(=O)N3CCc4cc(C5CN(C6COC6)C5)ccc43)n2)CC1` (stereo not shown) [Example 318], the “Nav1.1 current amplification rate (%)” value in assay [2] (setting [10]) is given as 77%.
For the molecule `CC1CC=C(c2ccc(=O)n(CC(=O)Nc3ccc(C4=CCN(C)C4)nc3)n2)CC1` (stereo not shown) [Example 374], the “Nav1.1 current amplification rate (%)” value in assay [2] (setting [11]) worked out at 18%.
Consider `CC1CC=C(c2ccc(=O)n(CC(=O)N3CCc4c(-c5ccnnc5)cccc43)n2)CC1` (stereo not shown) [Example 253], for which the “Nav1.1 current amplification rate (%)” value in assay [2] (setting [10]) came to 455%.
In the case of `CC1(C)CC=C(c2ccc(=O)n(CC(=O)N3CCN(c4ccccn4)CC3)n2)CC1` [Example 439], the “Nav1.1 current amplification rate (%)” value in assay [2] (setting [11]) is on record as 87%.
Take `O=C(Cn1ncc2ccc(N3CCC4(CC4)C(F)(F)C3)nc21)Nc1ccn2ncnc2c1` [Example 863]: the “Nav1.1 current amplification rate (%)” value in assay [2] (concentration for evaluation 1 μM, HEK293 stably expressing human Nav1.1) worked out at 49%.
As to `Cc1nc2ccc(NC(=O)Cn3nc(C4=CCC(C)CC4)ccc3=O)cn2n1` (stereo not shown) [Example 347], in assay [2] (Concentration for evaluation 1 μM, HEK293 cell line stably expressing human Nav1.1), the “Nav1.1 current amplification rate (%)” value is given as 37%.

The record behind these values is patent publication US20230109839A1, “THERAPEUTIC AGENT FOR TAUOPATHIES” (SUMITOMO PHARMA CO., LTD., priority 2020, published 2023).
